This note sets out measurements from US12083165B2, “Thymosin alpha 1 for use in treatment of cystic fibrosis” (SciClone Pharmaceuticals International (SG) PTE. LTD., priority 2015, dated 2024).

One assay has as its target T1, CFTR (Homo sapiens, UniProt P13569, DEL508-508).
T1 construct: endogenous in cells; host or cells: primary HBE cells from lung transplants of CF patients
Nature of the assay: CFTR protein expression (band C) in HBE cells from CF patients. Format: cell-based. The following applies: 100 ng/ml Tα1 for 24 hours, cells from 5 CF patients. The protocol:
Cells. Cell Lines and Cell Culture—Human bronchial epithelial (HBE) cells, homozygous for the […] mutation and its isogenic wild-type were obtained from lung transplants (CF patients) or lung resections (non-CF patients) (kindly provided by L J Galietta within the Italian Cystic Fibrosis Foundation). Cells were maintained at 37° C. in a humidified incubator in an atmosphere containing 5% CO2, and the experiments were done 5 days after plating (21, 22). Stable lentiviral-based transduction of the parental CFBE41o− cells (ΔF508/ΔF508), originally immortalized and characterized by Dr. D. Gruenert and co-workers (32) with either WT-CFTR or ΔF508-CFTR, was performed by Tranzyme, Inc. (Birmingham, AL). […]
CFTR Immunoblot Analysis. […] LiteAblotPlus chemiluminescence substrate (Euroclone S.p.A.), using ChemiDoc™ XRS+ Imagig system (Bio-Rad Laboratories) and blot quantification was obtained by densitometry image analysis using Image Lab 3.1.1 software (Bio-Rad).
The SV40 transformed CF airway epithelial cell line (CFBE41o−), homozygous for the ΔF508-CFTR mutation, was used (32). […] CFTR bands were quantified by densitometry and expressed as the C/B ratio. […]

In assay [1] the test system is A. fumigatus-infected C57BL/6 and Cftr−/− mice. Nature of the assay: Lung inflammatory pathology and cell recruitment in Aspergillus-infected mice. Type of assay: in vivo. The settings on record: 200 μg/kg/i.p. daily for 6 days, 7 days post-infection. The protocol:
Mice. Wild-type (WT) inbred C57BL6 mice, 8 to 12 weeks old, were purchased from Charles River Breeding Laboratories (Calco, Italy). Genetically engineered homozygote Cftr^−/− mice (33) were bred at the Cystic Fibrosis core animal facility at San Raffaele Hospital, Milan, Italy. Experiments were performed following protocols approved by the institutional animal committee and in accordance with European Economic Community Council Directive as well as institutional animal care and use guidelines.
Infection and treatments. Mice were anesthetized by i.p. injection of 2.5% avertin (Sigma Chemical Co, St. Louis, MO) before intranasal instillation of 2×10^7 A. fumigatus (Af293) resting conidia/20 μl saline. For histology, paraffin-embedded tissue were stained with Periodic acid-Schiff (PAS), and BAL fluid collection was done as described (21, 22). […]
Aspergillus-infected mice were treated with 200 μg/kg/i.p. daily of Tα1 for 6 consecutive days beginning the day of the infection. Mice were monitored for lung inflammatory pathology and cell recruitment at 7 days post-infection. […] Differential cell count of mononuclear (MNC), polymorphonuclear (PMN) cells and eosinophils (EOS) was determined upon May Grunwald Giemsa staining. […]

T1 sequence (P13569 with tags, fused parts or gaps DEL508-508): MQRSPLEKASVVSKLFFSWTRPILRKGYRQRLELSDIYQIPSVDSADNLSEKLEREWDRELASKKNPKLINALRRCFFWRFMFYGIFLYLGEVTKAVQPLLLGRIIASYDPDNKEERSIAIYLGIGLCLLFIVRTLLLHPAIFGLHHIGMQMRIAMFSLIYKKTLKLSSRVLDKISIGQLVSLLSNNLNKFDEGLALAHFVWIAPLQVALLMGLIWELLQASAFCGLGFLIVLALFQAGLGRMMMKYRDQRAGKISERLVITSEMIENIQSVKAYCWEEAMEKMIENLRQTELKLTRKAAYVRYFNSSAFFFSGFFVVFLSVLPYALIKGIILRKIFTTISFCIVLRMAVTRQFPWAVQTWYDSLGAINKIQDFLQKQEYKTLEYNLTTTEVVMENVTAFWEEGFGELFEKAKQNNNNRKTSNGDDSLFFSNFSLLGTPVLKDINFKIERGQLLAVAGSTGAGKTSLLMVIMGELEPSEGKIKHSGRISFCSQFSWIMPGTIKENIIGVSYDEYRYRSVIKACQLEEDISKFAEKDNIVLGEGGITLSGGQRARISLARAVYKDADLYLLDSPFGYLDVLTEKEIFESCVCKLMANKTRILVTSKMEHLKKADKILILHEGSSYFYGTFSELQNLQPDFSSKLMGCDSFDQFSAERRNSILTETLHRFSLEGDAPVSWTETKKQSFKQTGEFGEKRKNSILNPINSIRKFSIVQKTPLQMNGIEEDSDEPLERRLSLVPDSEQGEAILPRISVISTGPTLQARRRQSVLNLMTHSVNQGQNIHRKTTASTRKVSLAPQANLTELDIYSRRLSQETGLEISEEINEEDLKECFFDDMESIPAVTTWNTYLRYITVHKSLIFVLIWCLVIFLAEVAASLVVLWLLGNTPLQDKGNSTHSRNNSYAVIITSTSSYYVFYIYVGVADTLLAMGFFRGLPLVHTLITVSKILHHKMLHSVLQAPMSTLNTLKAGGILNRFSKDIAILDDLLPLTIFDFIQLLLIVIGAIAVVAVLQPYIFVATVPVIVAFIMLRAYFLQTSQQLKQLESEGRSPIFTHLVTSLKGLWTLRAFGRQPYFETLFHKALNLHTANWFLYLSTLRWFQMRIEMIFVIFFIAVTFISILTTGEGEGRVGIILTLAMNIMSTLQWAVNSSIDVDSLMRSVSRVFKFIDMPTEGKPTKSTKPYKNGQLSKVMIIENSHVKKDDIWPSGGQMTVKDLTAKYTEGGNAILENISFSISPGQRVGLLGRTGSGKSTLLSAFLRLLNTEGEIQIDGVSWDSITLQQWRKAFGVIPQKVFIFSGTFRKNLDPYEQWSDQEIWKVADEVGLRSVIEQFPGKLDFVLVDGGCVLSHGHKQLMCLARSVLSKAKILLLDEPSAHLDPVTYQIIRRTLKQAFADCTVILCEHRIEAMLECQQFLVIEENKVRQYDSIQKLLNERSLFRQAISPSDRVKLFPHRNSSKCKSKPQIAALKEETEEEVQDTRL

Turning to “Ac-Ser-Asp-Ala-Ala-Val-Asp-Thr-Ser-Ser-Glu-Ile-Thr-Thr-Lys-Asp-Leu-Lys-Glu-Lys-Lys-Glu-Val-Val-Glu-Glu-Ala-Glu-Asn-O (Ac-SDAAVDTSSEITTKDLKEKKEVVEEAEN-OH; not fully specified; printed as Ac-Ser-Asp-Ala-Ala-Val-Asp-Thr-Ser-Ser-Glu-Ile-Thr-Thr-Lys-Asp-Leu-Lys-Glu-Lys-Lys-Glu-Val-Val-Glu-Glu-Ala-Glu-Asn-O; listed as Homo sapiens) [Tα1, naturally occurring polypeptide of 28 amino acid; supplied as purified sterile, lyophilized, acetylated polypeptide]”, the “CF patients whose HBE cells showed increased expression of CFTR (band C)” value in the assay with CFTR was determined as 3 patients. Further, the “local inflammatory cell recruitment and lung pathology (lung and BAL)” value in assay [1] (C57/BL6 mice) and in assay [1] (Cftr−/− mice) was “significantly decreased” in each case.
